Experimental data as given in patent US12643889B2, “Synthesis of novel EP4 antagonist and use in cancer and inflammation” (Wuhan Humanwell Innovative Drug Research And Development …, priority 2020, dated 2026).

Experiments:
[1] = target: T1, recombinant human EP4 receptor membrane protein (Homo sapiens, UniProt P35408); test: Radioligand binding assay for EP4 receptor ([3H]-PGE2); settings: [3H]-PGE2 1.5 nM; membrane protein 20 μg/well
T1 construct: expressed in transfected cells; host or cells: membranes of 293 cells overexpressing human EP4 receptor
Method: The compounds to be tested and PGE2 were formulated as 10 mM stocks in a DMSO solvent, and then 8 concentration points of 4× working solution were serially diluted using a buffer (50 mM HBSS, 0.1% BSA, 500 mM NaCl). […] Unifilter-96 GF/C filter plate (Perkin Elmer) was soaked with 0.5% BSA, 50 μL per well, for at least 30 min at room temperature. After binding was complete, the reaction mixture was harvested through a GF/C plate using a Perkin Elmer Filtermate Harvester, followed by washing the filter plate and drying the filter plate for 1 hour at 50° C. After drying, the bottom of the filter plate wells was sealed using a Perkin Elmer Unifilter-96 sealing tape, and 50 μL of MicroScint™-20 cocktail (Perkin Elmer) was added to seal the top of the filter plate. The ^3H counts captured on the filter were read using a Perkin Elmer MicroBeta2 Reader.
The IC50 and Ki values of the compounds determined by the radioligand binding assay for EP4 receptor were calculated based on the inhibition rate of the different concentrations of the compounds.

human EP4 receptor [2] = target: T2, human EP4 receptor (Homo sapiens, UniProt P35408); test: Assay of calcium current inhibition on EP4 receptor (FLIPR, 293 cells); type: cell-based; parameters: expressed in transfected cells; host or cells: 293 cells; settings: for IC50: 293 cells overexpressing human EP4, PGE2 at EC80, FLIPR
Method: The cells were rapidly thawed in a 37° C. water bath, centrifuged, resuspended, and counted. The cell suspensions were seeded at 20 μL/well in two 384-well plates (20,000 cells/well) and placed in an incubator (a 37° C., 5% CO2) overnight. Preparation of a 2× Fluo-4 Direct™ (Invitrogen, Cat #F10471) loading buffer: 77 mg of probenecid was added to 1 mL of a FLIPR buffer, with a concentration of 250 mM. 10 mL of FLIPR buffer and 0.2 mL of probenecid (250 mM) were added to each tube of Fluo-4 Direct™ crystals (F10471).
One of the cell plates was taken out of the incubator and the medium was removed. 20 μL of an assay buffer and 2× Fluo-4 Direct™ non-wash loading buffer were added to the 384-well cell culture plate to a final volume of 40 μL, and then the culture plate was incubated in an incubator (a 37° C., 5% CO2) for 50 minutes, and then at room temperature for 10 minutes, and then the plate was placed in the FLIPR. 10 μL of the buffer was transferred to the cell plate and the fluorescence signal was read. The agonist PGE2 was formulated as a 10 mM stock in a DMSO solvent and 10 concentration points of the 6× working solution were serially diluted using the buffer. 10 μL of the agonist PGE2 was transferred to the cell plate, the fluorescence signal was read to calculate EC80 value.
The agonist PGE2 was prepared at 6× EC80 concentration and the compound to be tested was formulated as a 10 mM stock solution in the DMSO solvent and 10 concentration points of the 6× compound working solution was serially diluted using the buffer.
Another cell plate was taken to remove media and 20 μL of the assay buffer and 2× Fluo-4 Direct™ non-wash loading buffer were added; the cell plate was incubated in a 37° C., 5% CO2 incubator for 50 minutes and room temperature for 10 minutes and then placed in the FLIPR. 10 μL of the compound working solution, DMSO, and the EP4 full antagonist were transferred to the cell plate and the fluorescence signal was read. […] Inhibition (%)=100−(test group−EP4 full antagonist group)/(DMSO group−EP4 full antagonist group)*100
Compound's IC50 value of EP4 calcium current inhibition was calculated based on the inhibition rate at different concentrations of the compound.

human EP4 receptor [3] = target: T2, human EP4 receptor; test: Assay for EP4 antagonistic effect (cAMP, PGE2-stimulated CHO stable cell line)
Method: After trypsinization, cells were resuspended in a buffer (1×HBSS, 0.1% BSA, 20 mM HEPES, and 500 μM IBMX) and 8000 cells were seeded per well in 384-well plates in a seeding volume of 15 μL. A working solution the compound with a 8× concentration was prepared with an experimental buffer, and then 2.5 μL of the working solution of the compound with 8× concentration was added to the 384-well plate, respectively, and incubated at 37° C. for 30 min. An agonist PGE2 working solution with 8× concentration of (4 nM) was prepared with the experimental buffer and 2.5 μL per well was added to the 384-well plate (the final PGE2 concentration was 0.5 nM) and incubated at 37° C. for 30 min. After the reaction was completed, the amount of cAMP in the cells was quantified according to the method in the instructions of the cAMP test kit (Perkin Elmer, Cat #TRF0263). The antagonistic effects (IC50 value) were calculated for the test compounds.

[4] = Mouse pharmacokinetic assay; type: in vivo, male ICR mice; settings: male, ICR, plasma, oral gavage administration 5 mg/kg
Method: (§1) In a mouse pharmacokinetic assay, male ICR mice (20 g to 25 g) were selected and fasted overnight. Three mice were selected and intragastrically administered with 5 mg/kg of the corresponding compound. The blood of the mice was collected before the administration and at 15 min, 30 min, 1 h, 2 h, 4 h, 8 h, 24 h after the administration. Another 3 mice were intravenously administered with 1 mg/kg of the corresponding compound, and the blood thereof was collected before the administration and at 15 min, 30 min, 1 h, 2 h, 4 h, 8 h, 24 h after the administration. The blood samples were centrifuged at 6800 g at 2° C. to 8° C. for 6 minutes, and plasma was collected and stored at −80° C. The plasma was taken at respective time point, mixed with 3-5 times the amount of acetonitrile containing internal standard, vortexed for 1 minute, centrifuged at 4° C. for 10 minutes at 13000 rpm, supernatant was added 3 times the amount of water, and the appropriate mixture was taken for LC-MS/MS analysis. The primary pharmacokinetic parameters were analyzed with a WinNonlin 7.0 software, with non-compartmental model.

[5] = Rat pharmacokinetic assay; type: in vivo, male SD rats; settings: male, SD, plasma, rat, intravenous administration 1 mg/kg
Method: as §1
In a rat pharmacokinetic assay, male SD rats (180 g to 240 g) were selected and fasted overnight. Three rats were intragastrically administered with 5 mg/kg of the corresponding compound. Another 3 rats were intravenously administered with 1 mg/kg of the corresponding compound. The following operations were the same as the mouse pharmacokinetic assay.

T2 sequence (P35408 whole entry): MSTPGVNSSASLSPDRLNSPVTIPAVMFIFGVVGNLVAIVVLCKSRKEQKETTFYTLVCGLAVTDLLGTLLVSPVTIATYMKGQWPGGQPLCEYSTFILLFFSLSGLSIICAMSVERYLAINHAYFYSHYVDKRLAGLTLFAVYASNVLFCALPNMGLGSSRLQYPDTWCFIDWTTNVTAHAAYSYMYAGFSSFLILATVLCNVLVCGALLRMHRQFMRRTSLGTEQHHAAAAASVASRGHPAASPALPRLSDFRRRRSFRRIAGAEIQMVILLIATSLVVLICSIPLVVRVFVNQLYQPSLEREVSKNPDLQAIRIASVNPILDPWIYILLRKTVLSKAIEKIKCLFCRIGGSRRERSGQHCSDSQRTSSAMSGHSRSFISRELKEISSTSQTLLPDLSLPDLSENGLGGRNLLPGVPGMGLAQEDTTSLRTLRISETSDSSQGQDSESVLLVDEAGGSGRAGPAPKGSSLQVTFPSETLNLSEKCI
T1 sequence (P35408 whole entry): as above

| Compound | IC50 [1] | Ki [1] | IC50 (human EP4 receptor [2]) | also measured |
| --- | --- | --- | --- | --- |
| C[C@H](NC(=O)c1c(C(F)F)nn(C)c1Oc1cccc(C2CC2)c1)c1ccc(C(=O)O)cc1 [Compound I-3, (S)-4-(1-(5-(3-cyclopropylphenoxy)-3-(difluoromethyl)-1-methyl-1H-pyrazole-4-carboxamido)ethyl)benzoic Acid] | 9 nM | 4.9 nM | 3 nM | IC50 (human EP4 receptor [3]): 2.8 nM |
| CC(c1cccc(Oc2c(C(=O)N[C@@H](C)c3ccc(C(=O)O)cc3)c(C(F)F)nn2C)c1)C(F)(F)F (stereo partly drawn) [Compound I-15, 4-((1S)-1-(3-(difluoromethyl)-1-methyl-5-(3-(1,1,1-trifluoropropan-2-yl)phenoxy)-1H-pyrazole-4-carboxamido)ethyl)benzoic Acid] | 12 nM | 6.6 nM | 18 nM | – |
| C[C@H](NC(=O)c1c(C(F)F)nn(C)c1Oc1ccc(-c2ccccc2)cc1)c1ccc(C(=O)O)cc1 [Compound I-26, (S)-4-(1-(5-([1,1′-biphenyl]-4-yloxy)-3-(difluoromethyl)-1-methyl-1H-pyrazole-4-carboxamido)ethyl)benzoic Acid] | – | – | 8.5 nM | – |
| Cc1cc(Oc2c(C(=O)N[C@@H](C)c3ccc(C(=O)O)cc3)c(C(F)F)nn2C)cs1 [Compound I-41, (S)-4-(1-(3-(difluoromethyl)-1-methyl-5-((5-methylthiophen-3-yl)oxy)-1H-pyrazole-4-carboxamido)ethyl)benzoic Acid] | – | – | 16 nM | – |
| C[C@H](NC(=O)c1c(C(F)F)nn(C)c1Oc1ccc(F)c(C(C)(F)F)c1)c1ccc(C(=O)O)cc1 [Compound I-10, (S)-4-(1-(5-(3-(1,1-difluoroethyl)-4-fluorophenoxy)-3-(difluoromethyl)-1-methyl-1H-pyrazole-4-carboxamido)ethyl)benzoic Acid] | 4 nM | 2.2 nM | 14 nM | – |
| CC(O)c1cc(Oc2c(C(=O)N[C@@H](C)c3ccc(C(=O)O)cc3)c(C(F)F)nn2C)ccc1F (stereo partly drawn) [Compound I-23, 4-((1S)-1-(3-(difluoromethyl)-5-(4-fluoro-3-(1-hydroxyethyl)phenoxy)-1-methyl-1H-pyrazole-4-carboxamido)ethyl)benzoic Acid] | 13 nM | 7 nM | – | – |
| C[C@H](NC(=O)c1c(C(F)F)nn(C)c1Oc1cccc(SC(F)(F)F)c1)c1ccc(C(=O)O)cc1 [Compound I-29, (S)-4-(1-(3-(difluoromethyl)-1-methyl-5-(3-((trifluoromethyl)thio)phenoxy)-1H-pyrazole-4-carboxamido)ethyl)benzoic Acid] | – | – | – | IC50 (human EP4 receptor [3]): 14 nM |
| C[C@H](NC(=O)c1c(C(F)F)nn(C)c1Oc1cccc(S(F)(F)(F)(F)F)c1)c1ccc(C(=O)O)cc1 [Compound I-28, (S)-4-(1-(3-(difluoromethyl)-1-methyl-5-(3-(pentafluoro-λ^6-sulfanyl)phenoxy)-1H-pyrazole-4-carboxamido)ethyl)benzoic Acid] | – | – | 8 nM | IC50 (human EP4 receptor [3]): 5.7 nM |
| C[C@H](NC(=O)c1c(C(F)F)nn(C)c1Oc1cccc(OCC(F)(F)F)c1)c1ccc(C(=O)O)cc1 [Compound I-33, (S)-4-(1-(3-(difluoromethyl)-1-methyl-5-(3-(2,2,2-trifluoroethoxy)phenoxy)-1H-pyrazole-4-carboxamido)ethyl)benzoic Acid] | 31 nM | 17 nM | 12 nM | AUC(0-t) [4]: 8290 ng·h/mL; Cmax [4]: 2530 ng/mL; Tmax [4]: 0.33 h; half-life [4]: 8.22 h; AUC(0-t) [5]: 4670 ng·h/mL; clearance [5]: 3.67 mL/min/kg; half-life [5]: 9.02 h; Vd ([5]; read-out: Vz): 2.72 L/kg |
| CCc1cccc(Oc2c(C(=O)N[C@@H](C)c3ccc(C(=O)O)cc3)c(C)nn2C)c1 [Compound I-9, (S)-4-(1-(5-(3-ethylphenoxy)-1,3-dimethyl-1H-pyrazole-4-carboxamido)ethyl) benzoic Acid] | – | – | – | IC50 (human EP4 receptor [3]): 29 nM |

Further lines, with some results ahead:

| IC50 [1] | Ki [1] | IC50 (human EP4 receptor [2]) | Compound | also measured |
| --- | --- | --- | --- | --- |
| – | – | 18 nM | CCc1cc(Oc2c(C(=O)N[C@@H](C)c3ccc(C(=O)O)cc3)c(C(F)F)nn2C)ccc1C [Compound I-17, (S)-4-(1-(3-(difluoromethyl)-5-(3-ethyl-4-methylphenoxy)-1-methyl-1H-pyrazole-4-carboxamido)ethyl)benzoic Acid] | – |
| 7.4 nM | 4 nM | 4 nM | CC(C)c1cccc(Oc2c(C(=O)N[C@@H](C)c3ccc(C(=O)O)cc3)c(C(F)F)nn2C)c1 [Compound I-4, (S)-4-(1-(3-(difluoromethyl)-5-(3-isopropylphenoxy)-1-methyl-1H-pyrazole-4-carboxamido)ethyl)benzoic Acid] | increase of inhibition effect on the calcium current of EP4 compared with the control compound (human EP4 receptor [2]; compared with the control compound): more than 5 time |
| – | – | 16.5 nM | Cc1nn(C)c(Oc2cccc(C(C)(F)F)c2)c1C(=O)N[C@@H](C)c1ccc(C(=O)O)cc1 [Compound I-8, (S)-4-(1-(5-(3-(1,1-difluoroethyl)phenoxy)-1,3-dimethyl-1H-pyrazole-4-carboxamido)ethyl)benzoic Acid] | – |
| 12 nM | 6.6 nM | 15 nM | CSc1cccc(Oc2c(C(=O)N[C@@H](C)c3ccc(C(=O)O)cc3)c(C(F)F)nn2C)c1 [Compound I-30, (S)-4-(1-(3-(difluoromethyl)-1-methyl-5-(3-(methylthio)phenoxy)-1H-pyrazole-4-carboxamido)ethyl)benzoic Acid] | IC50 (human EP4 receptor [3]): 12 nM |
| 6.8 nM | 3.7 nM | 8 nM | CCc1cc(Oc2c(C(=O)N[C@@H](C)c3ccc(C(=O)O)cc3)c(C(F)F)nn2C)ccc1Cl [Compound I-11, (S)-4-(1-(5-(4-chloro-3-ethylphenoxy)-3-(difluoromethyl)-1-methyl-1H-pyrazole-4-carboxamido)ethyl)benzoic Acid] | – |
| – | – | 19 nM | CCc1cc(F)cc(Oc2c(C(=O)N[C@@H](C)c3ccc(C(=O)O)cc3)c(C(F)F)nn2C)c1 [Compound I-12, (S)-4-(1-(3-(difluoromethyl)-5-(3-ethyl-5-fluorophenoxy)-1-methyl-1H-pyrazole-4-carboxamido)ethyl)benzoic Acid] | – |
| – | – | 10 nM | CC(F)c1cccc(Oc2c(C(=O)N[C@@H](C)c3ccc(C(=O)O)cc3)c(C(F)F)nn2C)c1 (stereo partly drawn) [Compound I-13, 4-((1S)-1-(3-(difluoromethyl)-5-(3-(1-fluoroethyl)phenoxy)-1-methyl-1H-pyrazole-4-carboxamido)ethyl)benzoic Acid] | – |
